Test results: PubChem BioAssay (NCI)
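Test compounds were applied to cells in 96-well plates for 48 hours at 5 doses. TGI: total growth inhibition.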

Experiments:
Test in all cases: DTP human tumour cell line panel, 48 h
786-0 renal = test system: 786-0 renal
COLO 205 colon = test system: COLO 205 colon
HCT-15 colon = test system: HCT-15 colon
HL-60(TB) leukemia = test system: HL-60(TB) leukemia
HOP-62 NSCLC = test system: HOP-62 NSCLC
HS 578T breast = test system: HS 578T breast
LOX IMVI melanoma = test system: LOX IMVI melanoma
MOLT-4 leukemia = test system: MOLT-4 leukemia
NCI-H226 lung = test system: NCI-H226 lung
OVCAR-3 ovarian = test system: OVCAR-3 ovarian
SF-295 CNS = test system: SF-295 CNS
SK-MEL-2 melanoma = test system: SK-MEL-2 melanoma
SK-MEL-5 melanoma = test system: SK-MEL-5 melanoma
UACC-62 melanoma = test system: UACC-62 melanoma
UO-31 renal = test system: UO-31 renal
CAKI-1 renal = test system: CAKI-1 renal
NCI-H522 lung = test system: NCI-H522 lung
UACC-257 melanoma = test system: UACC-257 melanoma
A498 renal = test system: A498 renal

| Compound | TGI (786-0 renal) [µM] | TGI (COLO 205 colon) [µM] | TGI (HCT-15 colon) [µM] | TGI (HL-60(TB) leukemia) [µM] | TGI (HOP-62 NSCLC) [µM] | TGI (HS 578T breast) [µM] | TGI (LOX IMVI melanoma) [µM] | TGI (MOLT-4 leukemia) [µM] | TGI (NCI-H226 lung) [µM] | TGI (OVCAR-3 ovarian) [µM] | TGI (SF-295 CNS) [µM] | TGI (SK-MEL-2 melanoma) [µM] | TGI (SK-MEL-5 melanoma) [µM] | TGI (UACC-62 melanoma) [µM] | TGI (UO-31 renal) [µM] | TGI (CAKI-1 renal) [µM] | TGI (NCI-H522 lung) [µM] | TGI (UACC-257 melanoma) [µM] | TGI (A498 renal) [µM] |
| --- | --- | --- | --- | --- | --- | --- | --- | --- | --- | --- | --- | --- | --- | --- | --- | --- | --- | --- | --- |
| O=C(O)c1ccccc1/C=N\N(CCO)C1=NCCN1 | > 100 | > 100 | > 100 | > 100 | > 100 | > 100 | > 100 | > 100 | > 100 | > 100 | > 100 | > 100 | > 100 | > 100 | > 100 | – | – | – | – |
| O=C1/C(=C/c2cccc([N+](=O)[O-])c2)Cc2ccccc21 | > 100 | > 100 | > 100 | > 100 | > 100 | > 100 | > 100 | > 100 | > 100 | > 100 | > 100 | > 100 | – | > 100 | > 100 | > 100 | > 100 | > 100 | – |
| CCOC(=O)C(CCSC)(CCSC)C(=O)OCC | > 100 | > 100 | > 100 | – | > 100 | > 100 | > 100 | > 100 | > 100 | > 100 | > 100 | > 100 | > 100 | 49.1 | > 100 | > 100 | > 100 | > 100 | > 100 |
| CCOC(=O)Cc1ccc(Nc2nc3cc(F)c(F)cc3nc2C(=O)OCC)cc1 | > 100 | > 100 | > 100 | > 100 | > 100 | > 100 | > 100 | > 100 | > 100 | > 100 | > 100 | 92.2 | > 100 | > 100 | 3.15 | 42.9 | 35.5 | > 100 | – |
| Oc1c(Cl)c(Cl)c(O)c(-c2cnc(-c3ncc(-c4c(O)c(Cl)c(Cl)c(O)c4Cl)s3)s2)c1Cl | 53.2 | 97.2 | 33.3 | > 100 | > 100 | 56.5 | – | > 100 | 14 | 52.4 | 41.9 | 54.1 | 30.1 | 46.8 | 58.7 | 41.2 | 5.43 | 97.8 | – |
| Cc1c2c(n3c(nc4ccccc43)c1C#N)NCC2 | > 10 | > 10 | > 10 | > 10 | > 10 | > 10 | > 10 | > 10 | > 10 | > 10 | > 10 | – | > 10 | > 10 | > 10 | > 10 | – | > 10 | > 10 |
| COc1cccc2c1C(=O)c1c(O)c3c(c(O)c1C2=O)CC(O)(C(C)=O)CC3OC1OC(COC(C)=O)C(OC(C)=O)C(OC(C)=O)C1OC(C)=O (centres undefined) | 56.3 | > 100 | > 100 | > 100 | 33.2 | 64.8 | > 100 | 36.9 | – | 31.2 | 62.8 | > 100 | > 100 | > 100 | > 100 | – | > 100 | 36.6 | – |
| O=C(O)c1ccc(Nc2nc3ccc(C(F)(F)F)cc3nc2-c2ccccc2)cc1 | > 100 | – | 57.3 | 66.3 | > 100 | > 100 | > 100 | > 100 | > 100 | 72.6 | > 100 | – | > 100 | 35.8 | 55.1 | > 100 | > 100 | > 100 | – |
| CC(c1ccccc1)n1c2ccccc2c2c(N)ncnc21 (centres undefined) | 28.6 | – | 59.4 | 47.8 | 31.9 | 47 | 33.1 | 52.7 | – | 30.6 | 36.6 | 45.3 | 33.9 | – | 22.2 | 62.2 | 31.2 | 31.2 | 30.3 |
| CC1=NC(=O)CNN1C1=NNC2(C(=O)N1)c1ccccc1-c1ccccc12 | > 100 | > 100 | > 100 | > 100 | > 100 | > 100 | > 100 | – | > 100 | > 100 | > 100 | > 100 | > 100 | > 100 | > 100 | > 100 | > 100 | > 100 | > 100 |
| Cc1ccc2nc(-c3nccn3C)cc(C(=O)NC(C)CN(C)C)c2c1 (centres undefined) | > 100 | > 100 | > 100 | > 100 | > 100 | > 100 | > 100 | – | > 100 | – | – | > 100 | > 100 | > 100 | > 100 | > 100 | – | > 100 | > 100 |
| CC(=O)Oc1ccc(C)c2c1[C@H]1CC[C@]3(C)[C@@H](OC(C)=O)CC[C@H]3[C@@H]1CC2 | 39.4 | – | 35.2 | 51.5 | 32 | 47 | 31.4 | 46.5 | 54.8 | 33.1 | 48.5 | – | 34.9 | 34.5 | > 100 | – | 34.1 | 35.6 | 31.4 |
| COc1c(N2CCCCC2)c2c(=O)c3ccccc3oc2c2c3ccccc3n(C)c12 | > 100 | > 100 | > 100 | > 100 | > 100 | > 100 | > 100 | > 100 | > 100 | > 100 | > 100 | > 100 | > 100 | > 100 | > 100 | > 100 | – | > 100 | – |
| CC(NNC(=S)N1CCCC1)c1cccnn1 (centres undefined) | > 100 | > 100 | > 100 | > 100 | > 31 | > 100 | > 100 | > 100 | > 26.5 | > 100 | > 28.2 | > 100 | 5.39 | 7.45 | 3.08 | > 100 | – | – | 97.5 |
| CCN(CC)CCC(=O)Nc1ccc2sc3ccccc3c(=O)c2n1 | 35.1 | 29.1 | 62.3 | 30.9 | 37.8 | 46.1 | 38.9 | > 100 | – | 43.2 | 48.9 | 45.8 | 33.8 | 35 | 22.2 | 28.8 | 30.4 | 37.5 | – |
| CC(Cn1c(=O)oc2ccccc21)N(C)C (centres undefined) | > 100 | > 100 | > 100 | > 100 | > 100 | > 100 | > 100 | > 100 | > 100 | > 100 | > 100 | > 100 | > 100 | > 100 | – | > 100 | – | > 100 | > 100 |
| COc1c(-c2ccc(F)cc2)oc2c(CC(=O)O)cccc2c1=O | > 100 | > 100 | – | > 100 | > 100 | > 100 | – | > 100 | > 100 | > 100 | > 100 | > 100 | > 100 | > 100 | 96.6 | 71.5 | > 100 | > 100 | > 100 |
| COC1=C(OC)C(=O)C(C/C=C/c2c(Cl)nc3sccn23)=C(C)C1=O | 49.2 | 31.9 | > 100 | – | 32.1 | 54.6 | 12.1 | 8.97 | – | 29.9 | 21 | 48.3 | 12.9 | 29.1 | 38.8 | 50.7 | 33.2 | 5.36 | 48.2 |
| CC(C)(CN1CCCCC1)C(=O)CC(SCCS(=O)(=O)O)c1ccccc1 (centres undefined) | 25.4 | 27.6 | 42.9 | – | 62.1 | 90.1 | – | 36.1 | 62 | 29.8 | 26.5 | 96.5 | 31.4 | 29.5 | 25.1 | 34.9 | 5.83 | – | 32.1 |
| CCCCCCC(O)C(=O)OC1C2C(CC1(C)C)C(O)C13OC1C(O)C1(CO1)[C@@]23C (some centres undefined) | 86.8 | > 100 | > 100 | > 100 | > 100 | 79.3 | > 100 | > 100 | – | > 100 | > 100 | – | 40.9 | > 100 | > 100 | > 100 | > 100 | > 100 | – |
| Cc1ccc(/C=C2\CCS(=O)(=O)c3ccccc3C2=O)cc1 | 34 | 30.2 | 27.7 | 73.1 | 80.4 | > 100 | 30.8 | 43.6 | 36.2 | 37.7 | 40.5 | 44 | – | 33.4 | 25.4 | 33.2 | – | 35.1 | 36.5 |
| CC(C)(Cl)C(Cl)CC/C(CBr)=C(\Cl)CBr (centres undefined) | 2.68 | 8.1 | 3.51 | – | 4.91 | 4.54 | 0.72 | 2.32 | 5.28 | 6.81 | 16 | 3.28 | 3.74 | 3.33 | 8.86 | 7.08 | 3.09 | 5.09 | > 58.2 |
| O=C(/C=C/c1ccc(Cl)cc1)c1nc2ccccc2[nH]1 | 29.6 | 50.4 | 61.4 | – | 50.1 | > 100 | 32.6 | – | > 100 | 49.1 | > 100 | > 100 | > 100 | > 100 | 24 | 10.1 | > 100 | > 100 | > 100 |
| O=C1Nc2n[nH]c(=S)n2NC12c1ccccc1-c1ccccc12 | > 100 | > 100 | > 100 | > 100 | > 100 | > 100 | > 100 | – | > 100 | > 100 | > 100 | > 100 | > 100 | 68.1 | > 100 | > 100 | > 100 | 48.4 | > 100 |
| O=c1[nH]nc(-c2ccccc2)n1-n1cccc1 | > 100 | > 100 | > 100 | – | > 100 | > 100 | > 100 | > 100 | > 100 | > 100 | > 100 | > 100 | > 100 | > 100 | > 100 | > 100 | > 100 | > 100 | > 100 |
| Cn1c2ccccc2c(=NNc2ccc(S(=O)(=O)N=C(N)N)cc2)c2ccccc21 | 19.2 | 18.7 | 36.7 | 38.6 | 28.2 | 49.7 | 16.9 | 13.4 | 19 | 23 | 31.1 | 28 | 20.1 | 32 | 22 | 38.8 | 11 | 34.9 | – |
| O=C(O)CCC1(CCC(=O)O)CCCCCCCCC(CCC(=O)O)(CCC(=O)O)C(=O)C1=O | > 100 | > 100 | > 100 | > 100 | > 100 | > 100 | > 100 | – | > 100 | > 100 | > 100 | > 100 | – | > 100 | – | > 100 | > 100 | > 100 | – |
